Oligonucleotides are given in HELM: sugar(base)linkage, 5' to 3'; d 2'-deoxyribose, r ribose, m 2'-O-methylribose, p phosphate. ss, as = sense and antisense strand
target: UBE2D3; experiment: reporter assay of Huesken 2005; settings: siRNA
Also: test concentration or dose not given here.

Substance	normalised inhibition (eCFP-eYFP dual reporter) [%]
RNA1{r(G)p.r(A)p.r(U)p.r(G)p.r(A)p.r(U)p.r(A)p.r(U)p.r(G)p.r(U)p.r(U)p.r(U)p.r(C)p.r(A)p.r(U)p.r(U)p.r(G)p.r(G)p.r(C)p.d(T)p.d(T)}|RNA2{r(G)p.r(C)p.r(C)p.r(A)p.r(A)p.r(U)p.r(G)p.r(A)p.r(A)p.r(A)p.r(C)p.r(A)p.r(U)p.r(A)p.r(U)p.r(C)p.r(A)p.r(U)p.r(C)p.d(C)p.d(C)}$$$RNA1{StrandType:ss}|RNA2{StrandType:as}$	66.1
RNA1{r(U)p.r(A)p.r(U)p.r(C)p.r(A)p.r(A)p.r(G)p.r(G)p.r(C)p.r(G)p.r(G)p.r(U)p.r(G)p.r(U)p.r(A)p.r(U)p.r(U)p.r(C)p.r(U)p.d(T)p.d(T)}|RNA2{r(A)p.r(G)p.r(A)p.r(A)p.r(U)p.r(A)p.r(C)p.r(A)p.r(C)p.r(C)p.r(G)p.r(C)p.r(C)p.r(U)p.r(U)p.r(G)p.r(A)p.r(U)p.r(A)p.d(T)p.d(G)}$$$RNA1{StrandType:ss}|RNA2{StrandType:as}$	99.5
RNA1{r(A)p.r(G)p.r(G)p.r(U)p.r(U)p.r(G)p.r(C)p.r(A)p.r(U)p.r(U)p.r(U)p.r(A)p.r(C)p.r(A)p.r(A)p.r(C)p.r(A)p.r(A)p.r(G)p.d(T)p.d(T)}|RNA2{r(C)p.r(U)p.r(U)p.r(G)p.r(U)p.r(U)p.r(G)p.r(U)p.r(A)p.r(A)p.r(A)p.r(U)p.r(G)p.r(C)p.r(A)p.r(A)p.r(C)p.r(C)p.r(U)p.d(T)p.d(A)}$$$RNA1{StrandType:ss}|RNA2{StrandType:as}$	86.6
RNA1{r(G)p.r(A)p.r(U)p.r(C)p.r(C)p.r(A)p.r(A)p.r(A)p.r(C)p.r(C)p.r(C)p.r(A)p.r(G)p.r(A)p.r(U)p.r(G)p.r(A)p.r(C)p.r(C)p.d(T)p.d(T)}|RNA2{r(G)p.r(G)p.r(U)p.r(C)p.r(A)p.r(U)p.r(C)p.r(U)p.r(G)p.r(G)p.r(G)p.r(U)p.r(U)p.r(U)p.r(G)p.r(G)p.r(A)p.r(U)p.r(C)p.d(A)p.d(C)}$$$RNA1{StrandType:ss}|RNA2{StrandType:as}$	56.5
RNA1{r(C)p.r(A)p.r(G)p.r(C)p.r(A)p.r(C)p.r(A)p.r(A)p.r(U)p.r(G)p.r(U)p.r(U)p.r(C)p.r(U)p.r(G)p.r(C)p.r(A)p.r(G)p.r(G)p.d(T)p.d(T)}|RNA2{r(C)p.r(C)p.r(U)p.r(G)p.r(C)p.r(A)p.r(G)p.r(A)p.r(A)p.r(C)p.r(A)p.r(U)p.r(U)p.r(G)p.r(U)p.r(G)p.r(C)p.r(U)p.r(G)p.d(G)p.d(A)}$$$RNA1{StrandType:ss}|RNA2{StrandType:as}$	87.8
RNA1{r(C)p.r(A)p.r(A)p.r(G)p.r(C)p.r(C)p.r(A)p.r(C)p.r(A)p.r(A)p.r(U)p.r(U)p.r(A)p.r(U)p.r(G)p.r(G)p.r(G)p.r(A)p.r(C)p.d(T)p.d(T)}|RNA2{r(G)p.r(U)p.r(C)p.r(C)p.r(C)p.r(A)p.r(U)p.r(A)p.r(A)p.r(U)p.r(U)p.r(G)p.r(U)p.r(G)p.r(G)p.r(C)p.r(U)p.r(U)p.r(G)p.d(C)p.d(C)}$$$RNA1{StrandType:ss}|RNA2{StrandType:as}$	35.2
RNA1{r(U)p.r(U)p.r(U)p.r(C)p.r(A)p.r(U)p.r(U)p.r(G)p.r(G)p.r(C)p.r(A)p.r(A)p.r(G)p.r(C)p.r(C)p.r(A)p.r(C)p.r(A)p.r(A)p.d(T)p.d(T)}|RNA2{r(U)p.r(U)p.r(G)p.r(U)p.r(G)p.r(G)p.r(C)p.r(U)p.r(U)p.r(G)p.r(C)p.r(C)p.r(A)p.r(A)p.r(U)p.r(G)p.r(A)p.r(A)p.r(A)p.d(C)p.d(A)}$$$RNA1{StrandType:ss}|RNA2{StrandType:as}$	85.3
RNA1{r(U)p.r(C)p.r(U)p.r(A)p.r(A)p.r(G)p.r(A)p.r(U)p.r(C)p.r(A)p.r(C)p.r(A)p.r(G)p.r(U)p.r(G)p.r(G)p.r(U)p.r(C)p.r(G)p.d(T)p.d(T)}|RNA2{r(C)p.r(G)p.r(A)p.r(C)p.r(C)p.r(A)p.r(C)p.r(U)p.r(G)p.r(U)p.r(G)p.r(A)p.r(U)p.r(C)p.r(U)p.r(U)p.r(A)p.r(G)p.r(A)p.d(A)p.d(T)}$$$RNA1{StrandType:ss}|RNA2{StrandType:as}$	43.3
RNA1{r(C)p.r(C)p.r(A)p.r(G)p.r(A)p.r(G)p.r(A)p.r(U)p.r(U)p.r(G)p.r(C)p.r(A)p.r(C)p.r(G)p.r(G)p.r(A)p.r(U)p.r(C)p.r(U)p.d(T)p.d(T)}|RNA2{r(A)p.r(G)p.r(A)p.r(U)p.r(C)p.r(C)p.r(G)p.r(U)p.r(G)p.r(C)p.r(A)p.r(A)p.r(U)p.r(C)p.r(U)p.r(C)p.r(U)p.r(G)p.r(G)p.d(C)p.d(A)}$$$RNA1{StrandType:ss}|RNA2{StrandType:as}$	82
RNA1{r(G)p.r(U)p.r(U)p.r(U)p.r(C)p.r(A)p.r(U)p.r(U)p.r(G)p.r(G)p.r(C)p.r(A)p.r(A)p.r(G)p.r(C)p.r(C)p.r(A)p.r(C)p.r(A)p.d(T)p.d(T)}|RNA2{r(U)p.r(G)p.r(U)p.r(G)p.r(G)p.r(C)p.r(U)p.r(U)p.r(G)p.r(C)p.r(C)p.r(A)p.r(A)p.r(U)p.r(G)p.r(A)p.r(A)p.r(A)p.r(C)p.d(A)p.d(T)}$$$RNA1{StrandType:ss}|RNA2{StrandType:as}$	94.9
RNA1{r(A)p.r(C)p.r(U)p.r(A)p.r(C)p.r(C)p.r(C)p.r(C)p.r(U)p.r(U)p.r(C)p.r(A)p.r(A)p.r(A)p.r(C)p.r(C)p.r(A)p.r(C)p.r(C)p.d(T)p.d(T)}|RNA2{r(G)p.r(G)p.r(U)p.r(G)p.r(G)p.r(U)p.r(U)p.r(U)p.r(G)p.r(A)p.r(A)p.r(G)p.r(G)p.r(G)p.r(G)p.r(U)p.r(A)p.r(G)p.r(U)p.d(C)p.d(T)}$$$RNA1{StrandType:ss}|RNA2{StrandType:as}$	63.1
RNA1{r(C)p.r(A)p.r(U)p.r(U)p.r(U)p.r(A)p.r(C)p.r(A)p.r(A)p.r(C)p.r(A)p.r(A)p.r(G)p.r(A)p.r(A)p.r(U)p.r(U)p.r(U)p.r(A)p.d(T)p.d(T)}|RNA2{r(U)p.r(A)p.r(A)p.r(A)p.r(U)p.r(U)p.r(C)p.r(U)p.r(U)p.r(G)p.r(U)p.r(U)p.r(G)p.r(U)p.r(A)p.r(A)p.r(A)p.r(U)p.r(G)p.d(C)p.d(A)}$$$RNA1{StrandType:ss}|RNA2{StrandType:as}$	70
RNA1{r(U)p.r(U)p.r(A)p.r(U)p.r(C)p.r(C)p.r(A)p.r(U)p.r(U)p.r(U)p.r(G)p.r(U)p.r(U)p.r(C)p.r(A)p.r(C)p.r(U)p.r(G)p.r(C)p.d(T)p.d(T)}|RNA2{r(G)p.r(C)p.r(A)p.r(G)p.r(U)p.r(G)p.r(A)p.r(A)p.r(C)p.r(A)p.r(A)p.r(A)p.r(U)p.r(G)p.r(G)p.r(A)p.r(U)p.r(A)p.r(A)p.d(A)p.d(A)}$$$RNA1{StrandType:ss}|RNA2{StrandType:as}$	23.6
RNA1{r(U)p.r(A)p.r(G)p.r(U)p.r(G)p.r(C)p.r(C)p.r(A)p.r(G)p.r(A)p.r(G)p.r(A)p.r(U)p.r(U)p.r(G)p.r(C)p.r(A)p.r(C)p.r(G)p.d(T)p.d(T)}|RNA2{r(C)p.r(G)p.r(U)p.r(G)p.r(C)p.r(A)p.r(A)p.r(U)p.r(C)p.r(U)p.r(C)p.r(U)p.r(G)p.r(G)p.r(C)p.r(A)p.r(C)p.r(U)p.r(A)p.d(G)p.d(G)}$$$RNA1{StrandType:ss}|RNA2{StrandType:as}$	62.4
RNA1{r(G)p.r(U)p.r(C)p.r(C)p.r(A)p.r(G)p.r(U)p.r(U)p.r(G)p.r(G)p.r(G)p.r(G)p.r(A)p.r(U)p.r(G)p.r(A)p.r(U)p.r(A)p.r(U)p.d(T)p.d(T)}|RNA2{r(A)p.r(U)p.r(A)p.r(U)p.r(C)p.r(A)p.r(U)p.r(C)p.r(C)p.r(C)p.r(C)p.r(A)p.r(A)p.r(C)p.r(U)p.r(G)p.r(G)p.r(A)p.r(C)p.d(C)p.d(T)}$$$RNA1{StrandType:ss}|RNA2{StrandType:as}$	88.3
RNA1{r(C)p.r(U)p.r(U)p.r(U)p.r(U)p.r(A)p.r(U)p.r(C)p.r(C)p.r(A)p.r(U)p.r(U)p.r(U)p.r(G)p.r(U)p.r(U)p.r(C)p.r(A)p.r(C)p.d(T)p.d(T)}|RNA2{r(G)p.r(U)p.r(G)p.r(A)p.r(A)p.r(C)p.r(A)p.r(A)p.r(A)p.r(U)p.r(G)p.r(G)p.r(A)p.r(U)p.r(A)p.r(A)p.r(A)p.r(A)p.r(G)p.d(A)p.d(A)}$$$RNA1{StrandType:ss}|RNA2{StrandType:as}$	27
RNA1{r(U)p.r(G)p.r(G)p.r(G)p.r(A)p.r(C)p.r(C)p.r(U)p.r(A)p.r(A)p.r(U)p.r(G)p.r(A)p.r(C)p.r(A)p.r(G)p.r(C)p.r(C)p.r(C)p.d(T)p.d(T)}|RNA2{r(G)p.r(G)p.r(G)p.r(C)p.r(U)p.r(G)p.r(U)p.r(C)p.r(A)p.r(U)p.r(U)p.r(A)p.r(G)p.r(G)p.r(U)p.r(C)p.r(C)p.r(C)p.r(A)p.d(T)p.d(A)}$$$RNA1{StrandType:ss}|RNA2{StrandType:as}$	48.6
RNA1{r(A)p.r(C)p.r(G)p.r(G)p.r(A)p.r(U)p.r(C)p.r(U)p.r(A)p.r(U)p.r(A)p.r(A)p.r(A)p.r(A)p.r(C)p.r(A)p.r(G)p.r(A)p.r(C)p.d(T)p.d(T)}|RNA2{r(G)p.r(U)p.r(C)p.r(U)p.r(G)p.r(U)p.r(U)p.r(U)p.r(U)p.r(A)p.r(U)p.r(A)p.r(G)p.r(A)p.r(U)p.r(C)p.r(C)p.r(G)p.r(U)p.d(G)p.d(C)}$$$RNA1{StrandType:ss}|RNA2{StrandType:as}$	68.3
RNA1{r(A)p.r(U)p.r(G)p.r(U)p.r(U)p.r(U)p.r(C)p.r(A)p.r(U)p.r(U)p.r(G)p.r(G)p.r(C)p.r(A)p.r(A)p.r(G)p.r(C)p.r(C)p.r(A)p.d(T)p.d(T)}|RNA2{r(U)p.r(G)p.r(G)p.r(C)p.r(U)p.r(U)p.r(G)p.r(C)p.r(C)p.r(A)p.r(A)p.r(U)p.r(G)p.r(A)p.r(A)p.r(A)p.r(C)p.r(A)p.r(U)p.d(A)p.d(T)}$$$RNA1{StrandType:ss}|RNA2{StrandType:as}$	90.7
RNA1{r(C)p.r(C)p.r(U)p.r(U)p.r(C)p.r(A)p.r(A)p.r(A)p.r(C)p.r(C)p.r(A)p.r(C)p.r(C)p.r(U)p.r(A)p.r(A)p.r(G)p.r(G)p.r(U)p.d(T)p.d(T)}|RNA2{r(A)p.r(C)p.r(C)p.r(U)p.r(U)p.r(A)p.r(G)p.r(G)p.r(U)p.r(G)p.r(G)p.r(U)p.r(U)p.r(U)p.r(G)p.r(A)p.r(A)p.r(G)p.r(G)p.d(G)p.d(G)}$$$RNA1{StrandType:ss}|RNA2{StrandType:as}$	94.5
